These results are taken from patent publication US20090124690A1, “Generation of Combinatorial Synthetic Libraries and Screening for Novel Proadhesins and Nonadhesins” (priority 2000, published 2009).

Usually IC50 stands for the concentration needed to halve the response being measured. A higher IC50 goes with a need for much substance.

The test system of experiment [1] is MRSA Staphylococcus aureus. Nature of the experiment: Anti-adhesion assay, MRSA Staphylococcus aureus. Type of experiment: cell-based. Particulars: for ICMAX / ICMAX: level of maximal inhibition (ICxx): anti-adhesion, MRSA S. aureus, cell reads 'ICxx - concentration'.
Another experiment deals with Colletotrichum acutatum. The experiment in a line: Petri dish assay for activity against Colletotrichum acutatum (spore adhesion). Particulars: for Inhibition of adhesion of spores to polystyrene surfaces, Colletotrichum acutatum: compound tested at 0.5%.
Experiment [2] deals with Staphylococcus epidermidis. The experiment in a line: 96-well plate assay for activity against Staphylococcus epidermidis (adhesion, Syto 13). Particulars: compound tested at 0.5%.
Another experiment concerns Dengue 2. Nature of the experiment: Anti-infection (adhesion) of viruses: Dengue 2, focus forming unit (FFU) reduction assay on LLCMK-2 cells. In kind it is cell-based, Dengue virus (DENV-2 strain NG-2). Particulars: FIG. 6. The procedure: (§1) DENV-1 strain HI-1, DENV-2 strain NG-2, DENV-3 strain H-78, and DENV-4 strain H-42 were obtained from R. Tesh at the World Health Organization Arbovirus Reference Laboratory at the University of Texas at Galveston. Viruses were propagated in the African green monkey kidney epithelial cell line, LLCMK-2, a gift of K. Olsen at Colorado State University. LLCMK-2 cells were grown in DMEM with 10% (v/v) FBS, 2 mM Glutamax, 100 U/ml penicillin G, 100 μg/ml streptomycin and 0.25 μg/ml amphotericin B, at 37° C. with 5% (V/V) CO2.
LLCMK-2 target cells were seeded at a density of 1×10^5 cells in each well of a 6-well plate 24 h prior to infection. Approximately 200 FFU of virus were incubated with or without chemistries in serum-free DMEM for 1 h at rt. […] Virus foci were detected using supernatant from mouse anti-DENV hybridoma E60 (obtained from M. Diamond at Washington University) followed by horseradish peroxidase-conjugated goat anti-mouse immunoglobulin (Pierce, Rockford, Ill.) and developed using AEC chromogen substrate (Dako, Carpinteria, Calif.). Results were expressed as the average of at least two independent trials with three replicates in each trial.

In another experiment the test system is Dengue virus. The experiment in a line: Direct binding assay (DART TOF-MS), Dengue virus. Conditions: FIG. 6.
Source text: The virus particles were collected and fixed in 100% (USP) ethanol prior to DART TOF-MS analysis. The closed end of a borosilicate glass capillary tube was immersed in the virion solution and passed through the DART He plasma to obtain mass spectra of virion surface-bound chemistries. […] The same conditions were used to assess the binding of composition here to bacterial species. • 1. […] Viruses and Cells
as §1

The test system of another experiment is P. aerug. Nature of the experiment: Library screening against P. aeruginosa (IC50). Conditions: Table 3. In kind it is cell-based, Pseudomonas aeruginosa.

As to `O=C(O)/C=C/c1ccc(OS(=O)(=O)O)cc1` [Zosteric Acid, reference compound], in experiment [1], the “ICMAX” value was 90 µM and the “ICMAX: level of maximal inhibition (ICxx)” value was “IC100”.
`CNC(=O)C(Cc1ccc(OS(C)(=O)=O)cc1)NC(=O)COCC(=O)Nc1cccc(OS(C)(=O)=O)c1` (stereo not drawn) [Compound A02]: the “Inhibition of adhesion of spores to polystyrene surfaces, Colletotrichum acutatum” value in the experiment with Colletotrichum acutatum is recorded as −12%. The “Inhibition of adhesion of cells to polystyrene surfaces, Staphylococcus epidermidis” value in experiment [2] came to 22%.
Turning to `CNC(=O)C(Cc1ccc(OS(=O)(=O)C(F)(F)F)cc1)NC(=O)COCC(=O)Nc1cccc(OS(=O)(=O)C(F)(F)F)c1` (stereo not drawn) [Compound B02], in the experiment with Colletotrichum acutatum, the “Inhibition of adhesion of spores to polystyrene surfaces, Colletotrichum acutatum” value is −16%.
For the compound `CCN(CCOC(=O)/C=C/c1ccc(O)cc1)Cc1cc(Cl)ccc1O` [Compound I], the “Dengue infection when compound is bound” value with Dengue 2 is recorded as “inhibited”. The same compound displayed an IC50 in experiment [1] (Staphylococcus aureus, MRSA) of 82 µM. Further, in experiment [1], the “ICMAX” value worked out at 120 µM and the “ICMAX: level of maximal inhibition (ICxx)” value is listed as “IC70”. For the same compound, in the experiment with Colletotrichum acutatum (Table 3), the “IC50 (% wt/vol) C. acut.” value was 0.004 % wt/vol. Further, in the experiment on Dengue virus, the “direct binding to Dengue virus (DART-MS)” value was “direct binding”. Besides, the “IC50 (% wt/vol) P. aerug.” value in the experiment with P. aerug. is recorded as 0.001 % wt/vol.
